Results on seven compounds are retold here after patent publication US6355647B1, “3-substituted 3,4,5,7-tetrahedropyrrolo[3′,4′:4,5]thieno-[2,3-d]pyrimidine derivatives, their preparation and use” (Abbott Laboratories, priority 1997, dated 2002).

One may read the melting point as the temperature, or range, at which the solid turns liquid.

The subject of data set [1] is serotonin release in the dorsal raphe nucleus. The following applies: rat; combined with paroxetine; cited from earlier work.
Data set [2] concerns serotonin release in the cortex. The following applies: after systemic administration; cited from earlier work.

The compound `CCOC(=O)N1Cc2sc3ncn(CCN4CCN(c5ccccc5C)CC4)c(=O)c3c2C1` had a melting point of 152 °C.

`CCOC(=O)N1Cc2sc3ncn(CCN4CCN(c5ccccc5Cl)CC4)c(=O)c3c2C1` registered a melting point of 172 °C.

Turning to `COc1ccc(NC(=O)c2ccc(-c3ccc(-c4noc(C)n4)cc3C)cc2)cc1N1CCN(C)CC1` [GR 127 935], the “effect of paroxetine on serotonin release in the dorsal raphe nucleus” value in data set [1] is recorded as “potentiated”. Further, in data set [2], the “serotonin release in the cortex” value is recorded as “reduces serotonin release”.

Turning to `CCOC(=O)N1Cc2sc3ncn(CCN4CCN(c5ncccn5)CC4)c(=O)c3c2C1`, the melting point amounted to 166 °C.

`CCOC(=O)N1Cc2sc3ncn(CCCN4CCN(c5ccccc5C#N)CC4)c(=O)c3c2C1` showed a melting point of 190 °C.

Regarding `CCOC(=O)N1Cc2sc3ncn(CCN4CCN(c5cccc6ccccc56)CC4)c(=O)c3c2C1`, the melting point was in the range of 190 to 192 °C.

The compound `CCOC(=O)N1Cc2sc3ncn(CCN4CCN(c5cccc6c5CCC6)CC4)c(=O)c3c2C1` displayed a melting point of 149 °C.
